Patent publication US20030113330A1, “Methods for treating pulmonary fibrosis” (priority 1999, published 2003)

Legend:
[1] = test system: primary rat AEC; test: Angiotensin II-induced apoptosis in primary rat AEC (nuclear fragmentation, PI); assay type: cell-based; settings: ANGII 5.0 uM; saralasin 50 ug/ml, lisinopril 500 ng/ml
Text: Cell Culture. The human lung adenocarcinoma cell line A549 was obtained from American Type Culture Collection and cultured in Ham's F12 medium supplemented with 10% fetal bovine serum (FBS). Primary alveolar epithelial cells were isolated from adult male Wistar rats as described in Uhal et al., Am. J. Physiol. Suppl. (Oct.) 261:110-117 (1991) and Uhal et al., Am. J. Physiol. 269:L819-L828 (1995). The primary cells were studied at day two of culture, a time at which they are type II cell-like by accepted morphologic and biochemical criteria, see Uhal, Am. J. Physiol. 272:L1031-L1045 (1997). […] J. Physiol. Suppl. (October) 261:110-117 (1991). All cells were seeded in 24-well or 6-well chambers, and all experiments were conducted at subconfluent densities of 80-90% in serum-free Ham's F12 medium. Test reagents were diluted with Ham's F12 medium and were applied for 20 h at 37° C. in a 5% CO2 incubator.
Detection of Apoptosis. Detection of apoptotic cells with propidium iodide (PI) was conducted as described in Uhal, et al., Am. J. Physiol. 275:L1013-1017 (1998) following digestion of ethanol-fixed cells with DNAse-free RNAse in PBS containing 5 ug/ml PI. Assay of Annexin V binding by flow cytometry was performed essentially as described for human lung fibroblasts in Uhal, et al., Am. J. Physiol. 275:L998-L1005 (1998) after trypsinization of cells from culture vessels. Assay of Caspase-3 activity was performed on viable suspension cultures as reported in Uhal, et al., Am. J. Physiol. 275:L1013-1017 (1998). In all assays, detached cells were retained by centrifugation of the culture vessels during fixation with 70% ethanol, or by retention of culture media and recovery by centrifugation before assay.
For microscopy, cells were cultured on glass cover slips, incubated with test reagents and fixed with 70% ethanol. The fixed cells were immunolabeled overnight at 4° C. with monoclonal antibodies to cytokeratins 7 and 19 (Chemicon International, Temecula, Calif.), and then for one hour at 37° C. with anti-mouse IgG-rhodamine and DNAse-free RNAse (Boehringer Mannheim, Indianapolis, Ind.) The cover slips were then rinsed in distilled water three times and mounted under Fluoromount Solution (Southern Biotechnology Associates, Birmingham, Ala.) containing 5 ug/ml propidium iodide. Photomicroscopy was performed as described in Uhal, et al., Am. J. Physiol. 275:L1013-1017 (1998).
Apoptosis in alveolar epithelial cells was quantitated by fluorescence detection of chromatin condensation and nuclear fragmentation in alcohol-fixed cells stained with propidium iodide. See Uhal, et al., Am. J. Physiol. 275:L1013-1017 (1998). […] After 20 h, the culture vessel was centrifuged to retain detached cells and labeled with anticytokeratin antibodies and propidium iodide. […] Double labeling with PI and monoclonal antibodies to cytokeratins 7 and 19 identified cells with both apoptotic nuclear morphology and positive anticytokeratin immunoreactivity.

[2] = test system: A549 cells; test: Angiotensin II-induced apoptosis in A549 cells (nuclear fragmentation, PI); assay type: cell-based, human; settings: saralasin 50 ug/ml
Procedure: Cell Culture. […] J. Physiol. Suppl. (Oct.) 261:110-117 (1991) and Uhal et al., Am. J. Physiol. 269:[…]-[…] (1995). […] J. Physiol. 272:[…]-[…] (1997). […] J. Physiol. Suppl. (October) 261:110-117 (1991). […] Detection of Apoptosis. […] J. Physiol. […] Assay of Annexin V binding by flow cytometry was performed essentially as described for human lung fibroblasts in Uhal, et al., Am. J. Physiol. 275:[…]-[…] (1998) after trypsinization of cells from culture vessels. Assay of Caspase-3 activity was performed on viable suspension cultures as reported in Uhal, et al., Am. J. Physiol. 275:[…]-1017 (1998). […] For microscopy, cells were cultured on glass cover slips, incubated with test reagents and fixed with 70% ethanol. The fixed cells were immunolabeled overnight at 4° C. with monoclonal antibodies to cytokeratins 7 and 19 (Chemicon International, Temecula, Calif.), and then for one hour at 37° C. with anti-mouse IgG-rhodamine and DNAse-free RNAse (Boehringer Mannheim, Indianapolis, Ind.) The cover slips were then rinsed in distilled water three times and mounted under Fluoromount Solution (Southern Biotechnology Associates, Birmingham, Ala.) containing 5 ug/ml propidium iodide. Photomicroscopy was performed as described in Uhal, et al., Am. J. Physiol. 275:[…]-1017 (1998). […] The absolute values for basal, i.e., 0.0 dose, apoptosis were: A549 serum-free, 2.29±0.33%; […] AEC serum-free: 1.87±0.41%; and AEC+FBS: 1.97±0.37%.

| SMILES | inhibition of ANGII-induced apoptosis of primary rat AEC [1] | inhibition of ANGII-induced apoptosis of A549 cells [2] |
| --- | --- | --- |
| NCCCC[C@H](N[C@@H](CCc1ccccc1)C(=O)O)C(=O)N1CCC[C@H]1C(=O)O [lisinopril] | did not block |  |
| CCc1nc2c(C)cc(C)nc2n1Cc1ccc(-c2ccccc2-c2nn[nH]n2)cc1 [L158809] | could block | could block |
| CNCC(=O)N[C@@H](CCCN=C(N)N)C(=O)N[C@H](C(=O)N[C@@H](Cc1ccc(O)cc1)C(=O)N[C@H](C(=O)N[C@@H](Cc1cnc[nH]1)C(=O)N1CCC[C@H]1C(=O)N[C@@H](C)C(=O)O)C(C)C)C(C)C [saralasin] | completely inhibited | completely inhibited |
| COc1ccc2c(c1OCc1ccccc1)C[C@@H](C(=O)O)N(C(=O)C(c1ccccc1)c1ccccc1)C2 [PD126055] | unable to significantly inhibit | unable to significantly inhibit |
